As usually defined, the pIC50 is the negative decadic logarithm of the IC50, by convention in mol/L. Broadly, the IC50 is the concentration that inhibits the measured activity by half.

This is an account of results in PubChem BioAssay AID1259321 (Sanford-Burnham Center for Chemical Genomics, 2017).

The target of this assay is Nuclear receptor subfamily 1 group D member 1 (Homo sapiens) (UniProt P20393). The assay is described as follows: Rev-erbα–DNA interaction modulators – biochemical, FITC-DNA, fluorescence polarization, dose response (AID 1259321). The following applies: Rev-erb alpha-FITC-DNA binding. (In general: Fluorescence polarisation rises when a labelled molecule tumbles more slowly, as on binding a larger partner.)

pIC50: −log10 of the molar value. Active and inactive are the calls of the source.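 How the source made its calls: active means half-maximal concentration for changing protein binding to DNA, from the fitted dose curve, below 10 micromolar; inactive means the rest.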

Sequence of Nuclear receptor subfamily 1 group D member 1 (Homo sapiens) (P20393 whole entry, looked up): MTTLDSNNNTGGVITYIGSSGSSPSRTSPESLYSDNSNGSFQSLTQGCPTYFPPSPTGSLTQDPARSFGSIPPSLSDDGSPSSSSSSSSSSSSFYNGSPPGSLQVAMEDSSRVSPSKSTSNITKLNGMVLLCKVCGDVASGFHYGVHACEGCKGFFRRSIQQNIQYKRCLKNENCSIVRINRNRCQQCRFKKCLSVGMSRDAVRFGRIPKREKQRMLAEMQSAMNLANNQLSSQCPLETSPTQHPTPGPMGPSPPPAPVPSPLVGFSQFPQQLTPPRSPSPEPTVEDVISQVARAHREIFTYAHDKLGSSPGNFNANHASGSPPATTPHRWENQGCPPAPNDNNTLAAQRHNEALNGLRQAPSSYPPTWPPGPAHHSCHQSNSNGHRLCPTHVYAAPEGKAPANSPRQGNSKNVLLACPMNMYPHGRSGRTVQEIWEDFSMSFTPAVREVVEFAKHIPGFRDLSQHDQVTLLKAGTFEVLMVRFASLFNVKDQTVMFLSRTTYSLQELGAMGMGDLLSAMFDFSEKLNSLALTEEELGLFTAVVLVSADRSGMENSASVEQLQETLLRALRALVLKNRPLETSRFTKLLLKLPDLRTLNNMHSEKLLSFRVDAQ

For `COCCn1c(=NC(=O)c2nc3ccccc3s2)sc2cc(S(C)(=O)=O)ccc21`, the pIC50 was 5.34.
For `CN1C(=O)C(=Cc2ccc(N3CCOCC3)o2)C(=O)N(C)C1=S`, the pIC50 was 5.39.
`COc1cc(OC)cc(-c2c(Sc3ccccc3)c3cc(-c4ccc(SC)cc4)ccc3n2C)c1`: the pIC50 is 5.22.
Same read-out and setting: next, `CCc1cc2cc3c(cc2nc1SCC(=O)Nc1c[nH]c(=O)[nH]c1=O)OCO3`: 5.65.
Consider `CC(=O)c1cccc(NC(=O)c2cccc(NC(=O)c3ccco3)c2)c1`, for which the pIC50 is 5.80.
Same read-out and setting: as for `Cc1cc2cc(C#N)c(SCC(=O)Nc3nonc3C)nc2cc1C`, the figure is 5.88.
With `COc1ccc2cc(C)c(SCC(=O)Nc3cc(C)on3)nc2c1`, the IC50 is > 40 µM (inactive).
The same measure, in the same setting: next, `Cc1sc2nc(Cc3ccccc3)[nH]c(=O)c2c1-c1ccccc1`: > 40 µM (inactive).
Turning to `Cc1ccc(-c2nn3c(C)nnc3s2)cc1NC(=O)c1ccc(-c2ccc(Cl)cc2Cl)o1`, the IC50 is > 40 µM (inactive).
With `N#Cc1cnc2cc(-c3ccccc3)nn2c1N`, the pIC50 was 5.45.
Same read-out and setting: next, `O=C(Nc1ccccc1C(F)(F)F)OCCN1C(=O)CCC12CCC(c1ccccc1)CC2` (configuration not stated): 5.10.
Same read-out and setting: next, `COc1cc(OC)c(N(C)S(=O)(=O)c2cccc(C(=O)OCc3c(C)noc3C)c2)cc1Cl`: 5.29; `COc1ccccc1N=Nc1nc(-c2ccccc2)c(-c2ccccc2)[nH]1`: 6.33.
As for `CCOC(=O)c1c(NC(=O)COC(=O)CCOc2ccccc2C)sc(C(=O)NC)c1C`, the pIC50 is 6.08.
In the case of `C[n+]1cc(C(=O)N2CCCCC2)ccc1/C=C/c1c[nH]c2ccccc12`, the negative-log IC50 (pIC50) is 5.03.
Same read-out and setting: as for `CC(=O)c1ccc(S(=O)(=O)N2CCN(c3nc4c(C)c(C)ccc4cc3C#N)CC2)cc1`, the figure is 5.34.
Regarding `Cn1c(=O)c2c(nc(SCC(=O)c3cccs3)n2Cc2ccc(F)cc2)n(C)c1=O`, the IC50 is > 40 µM (inactive).
Same read-out and setting: next, `CCCCOc1ccc(C(=O)n2ccc3ccc(-c4ccc5ccn(Cc6ccccc6)c5c4)cc32)cc1`: > 40 µM (inactive).
As for `O=C(Nc1ccc(O)c(-c2nc3ccccc3s2)c1)c1cccs1`, the pIC50 is 5.52.
For `CCN1C(=O)/C(=C\N2CCN(c3ccc(F)cc3)CC2)SC1=S`, the IC50 is > 40 µM (inactive).
With `O=C(CCS(=O)(=O)c1ccccc1)Nc1ccccc1-c1nc2ccccc2s1`, the pIC50 was 6.29.
On to `CCOC(=O)CSc1nc2cc3c(cc2cc1C#N)OCCO3`, for which the IC50 is > 40 µM (inactive).
Take `O=C(OCCN1C(=O)c2cccc3c(N4CCOCC4)ccc(c23)C1=O)c1ccccc1Cl`: the pIC50 was 5.08.
As for `Cc1nc(SCc2nc3c(F)cccc3[nH]2)c2oc3ccccc3c2n1`, the IC50 is > 40 µM (inactive).
The same measure, in the same setting: next, `CCOC(=O)CSc1nc2cc3c(cc2cc1C#N)OCO3`: > 40 µM (inactive); `COc1ccc(-c2nc(N)ncc2Oc2ccccc2Br)c(O)c1`: “inactive”.
As to `COc1ccc(-c2nc3c(c(=O)c4ccccc4n3C)c(=O)n2Cc2ccccc2)cc1`, the pIC50 is 5.03.
The same measure, in the same setting: as for `Nc1ccc2ccc3cccc[n+]3c2c1`, the figure is 5.09.
`Cc1ccc2c3c(c(SCC(=O)Nc4nonc4C)nc2c1)CCCC3`: the IC50 is > 40 µM (inactive).
As for `NS(=O)(=O)c1ccc(CNC(=O)c2cc(-c3cccnc3)nc3ccc(Br)cc23)cc1`, the pIC50 is 6.30.
Regarding `Cc1cc(C)cc(OCc2nc3ncc(Br)cc3[nH]2)c1`, the pIC50 is 5.61.
Turning to `COC(=O)Cn1c(=NC(=O)CCS(=O)(=O)c2ccccc2)sc2c(OC)ccc(OC)c21`, the pIC50 is 5.50.
`CCc1nc(SCC(=O)NCc2ccco2)c2c3c(sc2n1)CCCC3`: the IC50 result is “inactive”.
As to `CC1CCN(S(=O)(=O)c2ccc3nc(N4CCN(c5ccccc5)CC4)ccc3c2)CC1`, the pIC50 was 5.08.
As to `Cc1ccc(-n2c(SCC(=O)Nc3cccc(C)c3)nc3c(oc4ccccc43)c2=O)cc1`, the pIC50 is 5.66.
As to `CCN1C(=O)C(=CC=CN(C)c2ccccc2)SC1=S`, the IC50 entry is “inactive”.
Take `CC1CC1C(=O)Nc1nc(-c2cccs2)c(-c2cccs2)s1` (configuration not stated): the pIC50 was 5.28.
Same read-out and setting: next, `Brc1ccc2ncc(Br)cc2c1`: 5.37.
For the compound `Cn1cncc1C#Cc1ccc2cc(C3(O)CCCCC3)oc(=O)c2c1`, the IC50 result was “inactive”.
In the case of `COC(=O)c1ccc(N/C=C\C(=O)c2ccc3c(c2)OCO3)cc1`, the pIC50 was 5.15.
Same read-out and setting: next, `CCOc1ccc(/C(CC)=N/NC(=O)C2(C)CC2(Br)Br)cc1` (configuration not stated): 5.11.
On to `COc1ccc(-n2c(SCC(=O)Nc3cc(C)on3)nc3c([nH]c4ccccc43)c2=O)cc1`, for which the IC50 result was “inactive”.
Consider `O=C(NCc1cc(C(F)(F)F)ccc1Cl)c1cccc2c1C(=O)c1ccc(Cl)cc1S2(=O)=O`, for which the pIC50 is 5.37.
Take `COc1ccc(-c2cc(C3CC3)nc(SCC(=O)c3cccs3)c2C#N)cc1`: the negative-log IC50 (pIC50) is 5.17.
Take `Cc1ccc(-n2c(O)c(/C=N/c3ncc(Br)cc3Br)c(=O)[nH]c2=O)cc1`: the IC50 entry was “inactive”.
Consider `CC(NC(=O)c1ccc(-c2cc(C(F)(F)F)ccc2Cl)o1)c1ccccc1` (configuration not stated), for which the IC50 is > 40 µM (inactive).
As for `CC(=O)Oc1ccc2oc(/C=C/N(C)C)c([N+](=O)[O-])c2c1`, the pIC50 is 5.41.
As to `O=C(NCc1ccccn1)c1ccc(Cn2c(=S)[nH]c3ccc(Br)cc3c2=O)cc1`, the pIC50 was 5.58.
With `Cc1nc2cc(NC(=O)CSc3nc4c(C)cccc4cc3C#N)ccc2s1`, the pIC50 is 5.23.
Same read-out and setting: as for `CCOc1ccc(OCC)c(NC(=O)c2[nH]c(C)c(C(C)=O)c2C)c1`, the figure is 5.45.
With `Cc1c(C2N3CC4(C)CN2CC(C)(C3)C4=O)c2ccccc2n1C` (configuration not stated), the IC50 entry is “inactive”.
For the compound `O=C1c2cccc3c(N4CCCCC4)ccc(c23)C(=O)N1c1cccc(O)c1`, the IC50 is > 40 µM (inactive).
As for `Cc1c(-c2ccc(F)cc2)nc(N)c(C#N)c1-c1cccs1`, the negative logarithm of the IC50 (pIC50) is 5.75.
For `Cc1ccc2cc(C#N)c(SCC(=O)NNC(=O)Cc3ccccc3)nc2c1`, the pIC50 is 5.37.
For the compound `Cc1cccc2cc(C#N)c(SCC(=O)N3CCC(C)CC3)nc12`, the negative logarithm of the IC50 (pIC50) is 5.90.
Same read-out and setting: as for `COc1ccc(Oc2c(Cl)cnn(CC(=O)C(c3ccccc3)c3ccccc3)c2=O)cc1`, the figure is 6.11.
Take `O=c1ccc(-c2ccc(S(=O)(=O)N3CCN(c4ccccc4)CC3)o2)n[nH]1`: the IC50 is > 40 µM (inactive).
For the compound `CCc1nnc(NS(=O)(=O)c2ccc(Nc3ccc([N+](=O)[O-])c4nonc34)cc2)s1`, the pIC50 was 5.02.
As for `CC(=O)c1cccc(NC(=O)c2csc(-n3nc(C)cc3C(F)(F)F)n2)c1`, the pIC50 is 5.44.
For `O=c1c2ccccc2[nH]c(=S)n1Cc1ccc2c(c1)OCO2`, the pIC50 was 5.60.
`Cc1ccccc1NC(=O)c1sc(NC(=O)COc2ccccc2)c(C#N)c1C`: the IC50 was > 40 µM (inactive).
The same measure, in the same setting: as for `Cc1ccc(Sc2cnc3ccccc3n2)cc1`, the entry is “inactive”.
On to `CN1C(=O)/C(=C\c2ccc(N3CCCCC3)o2)C(=O)NC1=S`, for which the pIC50 is 5.46.
Same read-out and setting: as for `CCOC(=O)COc1c(Cl)cc(C2NC(=S)NC(c3ccccc3)=C2C(C)=O)cc1OCC` (configuration not stated), the figure is 5.94; as for `Cc1ccc(NC(=S)Nc2nc(CC(=O)Nc3ccccc3)cs2)cc1`, 5.42.
As to `COc1ccc(OC)c(-c2csc(NC(=O)c3ccc4c(c3)OCO4)n2)c1`, the negative-log IC50 (pIC50) was 5.49.
The same measure, in the same setting: next, `Cc1nn(C)c(C)c1N1C(=O)c2cccc3c(N)ccc(c23)C1=O`: 5.95.
As for `CCN(c1ccccc1C)S(=O)(=O)c1cc2c3c(c1)CCC(=O)N3CCC2`, the IC50 is > 40 µM (inactive).
Take `COc1ccc(-n2ncc3c(N4CCc5ccccc54)ncnc32)cc1`: the pIC50 is 5.08.
Same read-out and setting: as for `COc1ccc2cc(C3CC(c4cccs4)=NN3C(C)=O)c(Cl)nc2c1` (configuration not stated), the figure is 5.54.
Take `COc1cccc(OC)c1-c1nn2c(-c3cc(-c4ccccc4)n[nH]3)nnc2s1`: the IC50 result is “inactive”.
Turning to `COc1ccc(CCn2c(O)c(C=Nc3ccc(F)cc3)c(=O)[nH]c2=O)cc1OC`, the IC50 entry was “inactive”.
With `CC(=O)c1sc(NC(=O)c2oc3ccc(F)cc3c2C)nc1C`, the pIC50 is 5.08.
In the case of `COc1ccc(C(=O)Nc2nnc(Cc3ccccc3)s2)c(OC)c1`, the IC50 result was “inactive”.
For the compound `C=CCn1c(SCCNC(C)=O)nc2cc(-c3ccccc3)sc2c1=O`, the IC50 entry is “inactive”.
Still for that read-out and setting: next, `CCOc1ccc(-n2c([S-])c(C(=O)Nc3ccc(S(=O)(=O)N4CCOCC4)cc3)[n+]3cc(C(N)=O)ccc23)cc1`: “inactive”.
Regarding `CCCn1c(N)c(C(=O)CSc2nc(C)nc3sc(C)c(C)c23)c(=O)[nH]c1=O`, the IC50 is > 40 µM (inactive).
As to `CN(C)/C=N/C1=C(C#N)C(c2cccs2)c2ccc3ccccc3c2O1` (configuration not stated), the pIC50 was 5.40.
Consider `CCOc1ccccc1NC(=O)c1nnn(CC(=O)Nc2cc(C)cc(C)c2)c1N`, for which the IC50 is > 40 µM (inactive).
On to `O=C(COc1nc2ccccc2nc1N1CCOCC1)N1CCc2ccccc21`, for which the IC50 is > 40 µM (inactive).
As to `COc1ccc(-c2cc(-c3ccccc3)c(C#N)c(SCC(=O)Nc3ncc(C)s3)n2)cc1`, the negative-log IC50 (pIC50) was 5.45.
With `Cc1cc(/C=C(/C#N)C(=O)Nc2ccc(Cl)cc2)c(C)n1-c1cccnc1`, the pIC50 was 5.58.
With `COc1ccc(-n2nc(C(=O)NCC(=O)Nc3ccccn3)c3ccccc3c2=O)cc1Cl`, the pIC50 was 5.89.
In the case of `COc1cc(C=Cc2nnc3c4ccccc4cnn23)cc(OC)c1OC`, the IC50 result is “inactive”.
As for `Fc1ccc(CSc2ncnc3c2oc2ccccc23)cc1`, the pIC50 was 5.17.
For `COc1cccc(-n2nnnc2SCC(=O)Nc2ccc3c(c2)OCCO3)c1`, the IC50 entry was “inactive”.
In the case of `CCN(CC)C(=O)CSc1nc(C)cc(-c2cccs2)c1C#N`, the pIC50 was 5.23.
Turning to `CCOc1ccc(C(=O)Nc2nc(C)c(C(=O)OC)s2)cc1`, the pIC50 is 5.66.
On to `Clc1nc2c(-c3ccccc3)nnn2c2ccccc12`, for which the IC50 is > 40 µM (inactive).
For `COc1ccc(C(=O)Nc2scc(-c3ccc(Cl)cc3Cl)c2C(N)=O)cc1`, the IC50 entry is “inactive”.
Regarding `CCOc1ccccc1NC(=O)c1cnc2n(c1=O)CCS2`, the IC50 is > 40 µM (inactive).
Consider `Cn1c(=O)c(Nc2ccc(O)cc2)c2c3c(cccc31)C(=O)c1ccccc1-2`, for which the pIC50 is 5.17.
